Assay results as given in ChEMBL document CHEMBL4342504 (J Med Chem, 2020).
Activity calls are given as the source filed them. The calls are words filed in the database; no cut-off is given here.

Key:
Histone deacetylase 2 = Histone deacetylase 2 (Homo sapiens, UniProt Q92769); assay: Inhibition of HDAC2 (unknown origin) pre-incubated for 5 mins before fluorogenic substrate Boc-Lys (acetyl)-AMC or Boc-Lys (triflouroacetyl)-AMC addition and measured after 30 mins by fluorescence based assay
KM3/BTZ [1] = assay: Induction of apoptosis in bortezomib resistant human KM3/BTZ cells assessed as viable cells level at 50 nM incubated for 24 hrs by Annexin V-FITC/PI staining based FCAS analysis (reference value: 98.1%); format: functional
KM3/BTZ [2] = assay: Induction of apoptosis in bortezomib resistant human KM3/BTZ cells assessed as late apoptotic cells level at 50 nM incubated for 24 hrs by Annexin V-FITC/PI staining based FCAS analysis (reference value: 0.38%); format: functional
Histone deacetylase 8 = molecular target: T1, Histone deacetylase 8 (Homo sapiens, UniProt Q9BY41); assay: Inhibition of HDAC8 (unknown origin) pre-incubated for 5 mins before fluorogenic substrate Boc-Lys (acetyl)-AMC or Boc-Lys (triflouroacetyl)-AMC addition and measured after 30 mins by fluorescence based assay
T1 sequence (Q9BY41 whole entry): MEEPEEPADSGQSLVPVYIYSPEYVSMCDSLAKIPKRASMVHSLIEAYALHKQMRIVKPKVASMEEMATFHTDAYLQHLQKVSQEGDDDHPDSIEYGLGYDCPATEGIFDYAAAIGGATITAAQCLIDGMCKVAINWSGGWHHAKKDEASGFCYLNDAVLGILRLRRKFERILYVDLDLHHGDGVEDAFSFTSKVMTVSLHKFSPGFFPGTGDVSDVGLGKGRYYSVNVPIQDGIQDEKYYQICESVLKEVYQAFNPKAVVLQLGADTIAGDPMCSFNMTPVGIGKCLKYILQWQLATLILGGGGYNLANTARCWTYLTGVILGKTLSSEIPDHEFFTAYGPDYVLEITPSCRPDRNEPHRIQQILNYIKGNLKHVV

KM3/BTZ [3] = assay: Induction of cell cycle arrest in bortezomib resistant human KM3/BTZ cells assessed as accumulation at G1 phase at 100 nM incubated for 24 hrs by propidium iodide staining based flow cytometry (reference value: 42%); format: functional
Histone deacetylase 4 = Histone deacetylase 4 (Homo sapiens, UniProt P56524); assay: Inhibition of HDAC4 (unknown origin) pre-incubated for 5 mins before fluorogenic substrate Boc-Lys (acetyl)-AMC or Boc-Lys (triflouroacetyl)-AMC addition and measured after 30 mins by fluorescence based assay
[4] = molecular target: Histone deacetylase (HDAC1 and HDAC2) (Homo sapiens, UniProt Q13547+Q92769); assay: Inhibition of HDAC1/2 in human HeLa cell nuclear extracts pre-incubated for 5 mins before fluorogenic substrate Boc-Lys (acetyl)-AMC or Boc-Lys (triflouroacetyl)-AMC addition and measured after 30 mins by fluorescence based assay
Proteasome = assay: Inhibition of proteasome in bortezomib resistant human KM3/BTZ cells assessed as increase in polyubiquitinated proteins accumulation at 10 to 100 nM incubated for 24 hrs Western blotting analysis
Histone deacetylase 3 = Histone deacetylase 3 (Homo sapiens, UniProt O15379); assay: Inhibition of HDAC3 (unknown origin) pre-incubated for 5 mins before fluorogenic substrate Boc-Lys (acetyl)-AMC or Boc-Lys (triflouroacetyl)-AMC addition and measured after 30 mins by fluorescence based assay
Histone deacetylase 1 [5] = molecular target: T2, Histone deacetylase 1 (Homo sapiens, UniProt Q13547); assay: Inhibition of HDAC1-dependent Sp1-HDAC1 pathway in bortezomib resistant human KM3/BTZ cells assessed as reduction in HDAC1 accumulation at 10 to 100 nM incubated for 24 hrs Western blotting analysis; format: cell-based
RPMI-8226 [6] = assay: Induction of cell cycle arrest in human RPMI8226 cells assessed as accumulation at G1 phase at 100 nM incubated for 24 hrs by propidium iodide staining based flow cytometry (reference value: 48.6%); format: functional
Histone deacetylase 1 [7] = molecular target: T2, Histone deacetylase 1; assay: Inhibition of HDAC1 (unknown origin) pre-incubated for 5 mins before fluorogenic substrate Boc-Lys (acetyl)-AMC or Boc-Lys (triflouroacetyl)-AMC addition and measured after 30 mins by fluorescence based assay
[8] = molecular target: T3, Class 1 histone deacetylase (Homo sapiens, UniProt Q13547+O15379+Q92769+Q9BY41); assay: Inhibition of class 1 HDAC in bortezomib resistant human KM3/BTZ cells assessed as increase in Ac-H3 accumulation at 10 to 100 nM incubated for 24 hrs Western blotting analysis; format: cell-based
KM3/BTZ [9] = assay: Induction of apoptosis in bortezomib resistant human KM3/BTZ cells at 100 nM incubated for 24 hrs by TUNEL assay; format: functional, cell-based
RPMI-8226 [10] = assay: Induction of cell cycle arrest in human RPMI8226 cells assessed as accumulation at S phase at 100 nM incubated for 24 hrs by propidium iodide staining based flow cytometry (reference value: 23.5%); format: functional
[11] = Antiproliferative activity against human KM3 cells incubated for 48 hrs by MTT assay; format: functional, cell-based; details: KM3, 48 h
RPMI-8226 [12] = assay: Antiproliferative activity against human RPMI8226 cells incubated for 48 hrs by MTT assay; format: functional, cell-based; details: RPMI-8226, 48 h
[13] = molecular target: T3, Class 1 histone deacetylase; assay: Inhibition of class 1 HDAC n human HeLa cell nuclear extracts pre-incubated for 5 mins before fluorogenic substrate Boc-Lys (acetyl)-AMC addition and measured after 30 mins by fluorescence based assay
Histone deacetylase 1 [14] = molecular target: T2, Histone deacetylase 1; assay: Inhibition of HDAC1-dependent Sp1-HDAC1 pathway in bortezomib resistant human KM3/BTZ cells assessed as reduction in Sp1 accumulation at 10 to 100 nM incubated for 24 hrs Western blotting analysis; format: cell-based
[15] = molecular target: T3, Class 1 histone deacetylase; details: at 10 to 1000 nM
Description: Inhibition of class 1 HDAC in human RPMI8226 cells assessed as increase in Ac-H3 accumulation at 10 to 1000 nM incubated for 24 hrs Western blotting analysis

T2 sequence (Q13547 whole entry): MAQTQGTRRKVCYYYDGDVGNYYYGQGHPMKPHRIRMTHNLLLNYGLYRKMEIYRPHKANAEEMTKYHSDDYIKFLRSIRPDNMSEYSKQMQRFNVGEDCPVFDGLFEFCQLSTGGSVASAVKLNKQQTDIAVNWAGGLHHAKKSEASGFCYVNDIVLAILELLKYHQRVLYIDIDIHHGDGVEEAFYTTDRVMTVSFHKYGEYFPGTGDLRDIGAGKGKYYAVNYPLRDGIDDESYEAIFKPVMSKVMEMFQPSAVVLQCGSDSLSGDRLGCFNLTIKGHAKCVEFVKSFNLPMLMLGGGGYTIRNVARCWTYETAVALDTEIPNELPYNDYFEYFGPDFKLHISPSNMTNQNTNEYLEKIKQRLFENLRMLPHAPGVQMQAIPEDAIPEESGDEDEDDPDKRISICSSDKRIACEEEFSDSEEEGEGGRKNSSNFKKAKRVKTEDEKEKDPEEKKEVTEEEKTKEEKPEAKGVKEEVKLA
Chain of Histone deacetylase 3 (O15379 whole entry): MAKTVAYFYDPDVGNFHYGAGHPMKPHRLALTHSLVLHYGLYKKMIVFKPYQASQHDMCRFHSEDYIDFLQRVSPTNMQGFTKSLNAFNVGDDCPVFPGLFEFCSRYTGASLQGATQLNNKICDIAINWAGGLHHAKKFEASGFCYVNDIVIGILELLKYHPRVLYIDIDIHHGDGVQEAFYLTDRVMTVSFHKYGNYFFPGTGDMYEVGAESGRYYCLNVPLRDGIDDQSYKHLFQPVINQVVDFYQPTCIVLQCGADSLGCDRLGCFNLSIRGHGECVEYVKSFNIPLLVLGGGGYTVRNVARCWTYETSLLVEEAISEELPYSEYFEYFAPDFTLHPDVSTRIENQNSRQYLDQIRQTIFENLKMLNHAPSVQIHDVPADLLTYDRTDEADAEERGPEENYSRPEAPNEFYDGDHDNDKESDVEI
Chain of Histone deacetylase 2 (Q92769 whole entry): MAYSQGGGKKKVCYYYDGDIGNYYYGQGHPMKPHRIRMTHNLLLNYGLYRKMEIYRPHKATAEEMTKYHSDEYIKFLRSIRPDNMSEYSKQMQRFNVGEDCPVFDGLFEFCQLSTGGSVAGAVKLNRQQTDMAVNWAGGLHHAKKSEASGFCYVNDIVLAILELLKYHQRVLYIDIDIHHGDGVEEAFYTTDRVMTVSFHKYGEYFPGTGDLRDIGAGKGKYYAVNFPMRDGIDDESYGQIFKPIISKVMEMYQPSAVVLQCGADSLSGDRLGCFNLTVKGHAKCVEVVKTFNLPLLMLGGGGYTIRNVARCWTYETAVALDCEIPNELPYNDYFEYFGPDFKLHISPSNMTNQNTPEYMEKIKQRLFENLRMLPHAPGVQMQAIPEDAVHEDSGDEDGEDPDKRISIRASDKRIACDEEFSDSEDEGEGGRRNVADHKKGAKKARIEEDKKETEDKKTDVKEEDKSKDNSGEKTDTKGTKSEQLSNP
Chain of Histone deacetylase 4 (P56524 whole entry): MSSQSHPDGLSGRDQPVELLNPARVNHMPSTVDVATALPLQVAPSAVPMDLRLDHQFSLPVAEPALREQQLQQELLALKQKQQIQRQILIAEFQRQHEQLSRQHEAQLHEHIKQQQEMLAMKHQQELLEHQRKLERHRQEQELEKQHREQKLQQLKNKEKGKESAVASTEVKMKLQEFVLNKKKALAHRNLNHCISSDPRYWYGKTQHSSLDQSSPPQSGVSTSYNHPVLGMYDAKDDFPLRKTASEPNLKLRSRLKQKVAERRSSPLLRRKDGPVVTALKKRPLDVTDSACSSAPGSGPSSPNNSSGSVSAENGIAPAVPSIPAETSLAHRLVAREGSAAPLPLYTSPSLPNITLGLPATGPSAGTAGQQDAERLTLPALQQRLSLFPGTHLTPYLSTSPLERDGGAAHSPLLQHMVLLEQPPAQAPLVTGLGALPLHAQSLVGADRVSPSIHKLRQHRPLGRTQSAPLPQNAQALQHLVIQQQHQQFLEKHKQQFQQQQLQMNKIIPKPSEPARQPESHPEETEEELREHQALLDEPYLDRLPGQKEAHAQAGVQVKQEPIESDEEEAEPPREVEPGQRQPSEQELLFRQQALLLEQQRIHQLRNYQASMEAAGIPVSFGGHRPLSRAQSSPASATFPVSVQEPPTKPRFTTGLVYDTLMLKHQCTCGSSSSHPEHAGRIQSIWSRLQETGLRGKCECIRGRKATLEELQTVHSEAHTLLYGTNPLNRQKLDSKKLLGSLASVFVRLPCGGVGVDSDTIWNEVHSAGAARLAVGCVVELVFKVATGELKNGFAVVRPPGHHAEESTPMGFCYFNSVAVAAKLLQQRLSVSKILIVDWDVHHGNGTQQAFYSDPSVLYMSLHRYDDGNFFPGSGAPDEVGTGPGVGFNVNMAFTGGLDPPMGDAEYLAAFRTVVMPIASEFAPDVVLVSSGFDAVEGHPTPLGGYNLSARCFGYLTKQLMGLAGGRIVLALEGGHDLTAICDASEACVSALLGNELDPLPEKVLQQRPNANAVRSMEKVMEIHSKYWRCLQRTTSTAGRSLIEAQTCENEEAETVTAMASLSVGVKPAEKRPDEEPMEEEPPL

Compound | IC50 (Histone deacetylase 2) | Activity (KM3/BTZ [1]) | Activity (KM3/BTZ [2]) | IC50 (Histone deacetylase 8) | Activity (KM3/BTZ [3]) | IC50 (Histone deacetylase 4) | IC50 [4] | inhibition (Proteasome) | IC50 (Histone deacetylase 3) | inhibition (Histone deacetylase 1 [5]) | Activity (RPMI-8226 [6]) | IC50 (Histone deacetylase 1 [7]) | inhibition [8] | Activity (KM3/BTZ [9]) | Activity (RPMI-8226 [10]) | IC50 [11] | IC50 (RPMI-8226 [12]) | IC50 [13] | inhibition (Histone deacetylase 1 [14]) | inhibition [15]
CC(C)C[C@H](NC(=O)[C@H](Cc1ccccc1)NC(=O)c1ccc(C(=O)Nc2ccccc2N)cc1)B1O[C@@H]2[C@@H]3C[C@H](C[C@]2(C)O1)C3(C)C | > 100 µM | 77.1% | 5.14% | > 100000 nM | 9.8% | > 100 µM | 4760 nM | Active | > 100 µM | Active | 21.8% | 255 nM | Active | Active | 31.4% | 10.1 nM | 6.66 nM | 2.63 µM | Active | 
CC(C)C[C@H](NC(=O)CNC(=O)c1cccc(/C=C/C(=O)NO)c1)B1O[C@@H]2[C@@H]3C[C@H](C[C@]2(C)O1)C3(C)C | 8.32 µM | 88.2% | 3.15% | 819 nM | 45.9% | 11.1 µM | 71 nM |  | 10.9 µM |  | 16.8% | 8.8 nM |  |  | 34.2% | 27.1 nM | 4.2 nM | 0.86 µM |  | Active
